The nature of data set [1]: Ratio of drug level in brain to plasma in mouse at 20 mg/kg, iv after 30 mins. Further details: dose 20 mg/kg, route intravenous. Type of data set: ADME, organism-based. To be noted: brain and plasma, read-out: BPR.
Data set [2] can be described thus: Drug level in mouse brain at 20 mg/kg, iv after 30 mins. The data set is classed as ADME, organism-based. Further details: dose 20 mg/kg, route intravenous. To be noted: read-out: Drug uptake.
Data set [3] in a line: Dissociation constant, pKa of the compound. Type of data set: physicochemical.

For `Nc1nc(C2(c3ccc(Cl)cc3)CCCC2)cs1`, in data set [1], the Kp at 0.5 h stood at 3.9. Moreover, the concentration at 0.5 h in data set [2] is 15 µM. The term pKa denotes the pH at which an ionisable group is half protonated. Read a high pKa as a group that holds its proton tightly. As for `COc1ccc(C(Cc2cc([N+](=O)[O-])ccc2OC)c2csc(N)n2)cc1` (stereo not given), the pKa in data set [3] was 5.5. In turn, `COc1ccc(C(Cc2cc([N+](=O)[O-])ccc2OC)c2c[nH]c(N)n2)cc1` (stereo not given) registered a pKa in data set [3] of 8.1. Same read-out and setting: then `COc1ccc(C(Cc2cc([N+](=O)[O-])ccc2OC)c2cn(C)c(N)n2)cc1` (stereo not given), with 8.3.

The values are drawn from ChEMBL document CHEMBL1136900, “Discovery of aminoheterocycles as a novel beta-secretase inhibitor class: pH dependence on binding activity part 1” (Bioorg Med Chem Lett, 2009).
